Here are results for five substances from patent publication US20260258083A1, “T Cell Engager Masking Molecules” (AMGEN INC., priority 2023, published 2026).

Data set [1] concerns STEAP1×CD3e heterodimeric TCE. Kind of data set: T cell dependent cellular cytotoxicity (TDCC) assay, inhibition of TCE cytotoxicity. The format is cell-based. To be noted: STEAP1×CD3, CLDN6×CD3 and DLL3×CD3 TCE; PBMC E:T 10:1, 48 hours. The procedure:
Example 12: In Vitro Cytotoxicity and Cytokine Release Inhibition by Binding Peptides
In vitro potency of CD3e pepPEG was indirectly assessed by measuring in vitro activity of T cell engager (TCE) using T cell dependent cellular cytotoxicity (TDCC) assay. […] Cytokine production was assessed in supernatants from TDCC assays using electro-chemiluminescence assays (MesoScale Discovery).

Data set [2] has as its system anti-CD3ε paratope of a CD3ε binding domain of a TCE. The data set can be described thus: Affinity class of the binding peptide of the masking molecule. From the text:
The exact value may vary with the respective TCE. However, the […]

For data set [3] the following is noted: C57BL/6 mice, single dose, non-linear one-phase decay fitting. From the text: Example 4: TCE Masking Molecule in PK Mouse Study
To further understand the in vivo behavior of the pyro-Glu containing dimeric p-[…]

In data set [4] the test system is FLT3×CD3 TCE (SEQ ID NO: 93). Kind of data set: Association kinetics by KinExA (Table 5). It counts as binding. To be noted: KinExA, FLT3×CD3 TCE. The procedure: • 1. Preparation of NHS-activated sepharose fast-flow beads: • 2. Fast flow sepharose suspension in 100% IPA, washed twice with milliQ H20, mild centrifugation to pool beads in between wash steps. • 3. Equilibrated in 0.15 M NaBO3, pH=8.5 buffer • 4. Added 80 mM PDEA to activate the resin for thiol exchange, 10 mins, r.t. • 5. Equilibrated resin with Hepes Buffered Saline-P (0.01 M HEPES pH 7.4, 0.15 M NaCl, 0.005% v/v Surfactant P2), pH 7.4 binding buffer • 6. Added 30 μg/mL of binding peptide, […] (SEQ ID NO; 297) or pGlu-[…] (SEQ ID NO: 300), reaction for 1 hr to functionalize resin. • 7. Quench with 10 mM L-Cys for 1 hour. • 8. Constant Binding Partner was FLT3×CD3 TCE (SEQ ID NO: 93), MW 105720, 3.2 mg/mL 31.21 uM was diluted to 333 pM and the pGlu-[…] peptide or pGlu-[…]-PEG (Pep-PEG v2) were titrated from 1 uM or 400 nM down to 2.3 pM concentrations relative to effective peptide molarity.
Association Kinetics by KinExA
In general terms: A kinetic exclusion assay measures how much of one partner remains free in solution.

The test system of a further data set is CD20 TCE. The data set can be described thus: CD20 TCE + CD3ε PepPOL, v2 PK/PD study 157130 (Example 10). The format is in vivo, cynomolgus monkeys. The procedure: Example 10: Cynomolgus Study CD20 TCE (0.010 mg/kg)+CD3ε PepPOL, v2 (+25× (0.016 mg/kg), +250× (0.16 mg/kg) Co-Administration in Cynomolgus Monkeys
PK/PD study 157130 was an exploratory dose-ranging study conducted in cynomolgus monkeys aimed to establish activity of a ‘high affinity’ CD3ε PepPOL, v2 when co-administered with CD20 TCE. Primary study endpoints included: cytokine release, CD20+ B cell lysis, T cell activation, and clinical chemistry end points typically associated with CRS (e.g., CRP). CD20 TCE was dosed at 10 ug/kg alone, or in combination with CD3ε PepPOL, v2 at 0.016 mg/kg (25× molar excess CD3ε peptide), or 0.160 mg/kg (250× molar excess CD3ε peptide). A summary of the results is described below.
Serum cytokines MCP-1, IL-6, TNFα, IFNγ, and IL-2 were assessed by multiplex sandwich immunoassay at multiple time points from 0-168 hours post dose.

The test system of data set [5] is DLL3xCD3 TCE SEQ ID NO 104. The data set can be described thus: SPR assay of immobilized peptides binding with TCE. Conditions: immobilized peptide, Kinetic 1:1 Binding. The procedure:
(§1) Example 14: SPR Assay of Immobilized Peptides Binding with TCE
(§2) A cytiva CM5 chip was first functionalized with PDEA (2-(2pyridinyldithio)ethaneamine) under standard ((1-ethyl-3-(3-dimethylaminopropyl)carbodiimide)/(N-hydroxysuccinimide) EDC/NHS coupling conditions where the PDEA is dissolved to 20 mM and 1 M NaCl in 0.1 M sodium acetate pH 4.3. Binding peptides were dissolved to 50- or 100-ug/mL respectively in PBST, pH 6.5, and coupling times were optimized to yield the desired surface density.
A general note: In SPR one partner is held on a chip, and binding of the other changes the refractive index at the surface.

The subject of data set [6] is Steap 1xCD3 TCE SEQ ID NO 373 + 374 + 375. Kind of data set: SPR assay of immobilized peptides binding with TCE. Conditions: immobilized peptide, Kinetic 1:1 Binding. The method, then: as §1, §2
For data set [7], the system named is FLT3xCD3 TCE SEQ ID NO 93. Kind of data set: SPR assay of immobilized peptides binding with TCE. To be noted: immobilized peptide, Kinetic 1:1 Binding. The method, then: as §1, §2
The next data set deals with FLT3xCD3 TCE. Kind of data set: SPR solution assay of competition binding with TCE. The procedure:
(§3) SPR Solution Assay of Competition Binding with TCE
(§4) As it can be derived from table 6,
(§5) A high affinity SPR ‘capture’ surface was first constructed to facilitate the SPR analysis of pre-equilibrated peptide analyte+TCE solutions. Briefly, a Cytiva CM5 chip was functionalized with PDEA (2-(2-pyridinyldithio)ethaneamine) under standard EDC/NHS coupling conditions where the PDEA is dissolved to 20 mM 2-(2-pyridinyldithio)ethaneamine and 1 M NaCl in 0.1 M sodium acetate pH 4.3, 6 peptide including p[…] (ID 14974, SEQ ID NO 304) were tested:
(§6) Respective peptide was dissolved to between 50 and 100-ug/mL for injection over the activated CM5 surface in PBST, pH 6.5, and coupling times were optimized to yield the desired surface density (~300RU).
(§7) For the binding assessment, Individual binding isotherms were constructed by titrating the respective peptide of interest into a fixed concentration of TCE-containing solution in PBST. At least 4 hrs equilibration time were allotted (r.t.) prior to analysis by SPR. For the analysis, a calibration curve was first constructed of the TCE analyte being assessed. For analysis of the TCE+peptide mixtures, the samples were injected (10 uL/min) over the previously prepared capture surface for 90 seconds, where the SPR response (RU) was recorded at the end of the injection and referenced to the previously prepared standard curve to derive an estimate of the ‘free’ TCE concentration in the presence of peptide analyte. The ‘free’ TCE concentration measured was plotted as a function of log peptide concentration and fit using non-linear regression analysis to a 4 parameter logistic function to derive an IC50.

Data set [8] can be described thus: 2nd mouse PK study, IV bolus (Example 3). Conditions: BL/6 mice, IV bolus 5 mg/kg, plasma. It counts as in vivo. The procedure: Example 3: 2nd Mouse PK Study
A second PK study was conducted in BL/6 mice to evaluate the plasma pharmacokinetics of the masking peptide in 8-arm (octavalent), 40 kDa PEG form. Both CD3ε PepPOL, v1 (40 kDa) and CD3ε PepPOL, v1 (20 kDa) (see Table 6 for sequences) were administered to mice by IV bolus at 5 mg/kg dose level and the results are shown in Fig. XX. […] The terminal elimination half-lives were estimated to be between 90 min and 120 min for the 20 kDa or 40 kDa CD3ε PepPOL, v1 forms, respectively.

Another data set relates to muCD19 TCE. The data set can be described thus: muCD19 TCE + CD3ε PepPOL, v1 co-administration pilot study, cytokines and CD19+ B cell depletion (Example 6). It counts as in vivo, huCD3ε TCR KI mice. Conditions: ≥1000× molar overage with 100 μg/kg muCD19 TCE. The procedure:
Example 6: Study muCD19 TCE+CD3ε PepPOL, v1 Co-Administration in huCD3ε TCR KI Mouse Model. 100 ug/kg IV Dose Murine Anti-muCD19 TCE Investigated >2300X
An initial pilot study in huCD3ε TCR KI mice was conducted to establish the desired PD effect with CD3ε PepPol v1. Here, CD3ε PepPol, v1 was co-administered at ≥1000× molar overage (peptide:TCE) with 100 μg/kg muCD19 TCE.

The nature of data set [9]: Mouse pharmacokinetic study, IV (Example 2). Conditions: BL/6 mice, IV, 0.82 or 8.2 mg/kg, plasma total intact peptide.
Description: Example 2: Mouse Pharmacokinetic Study to Evaluate In Vivo PK
The 4-arm 20 kDa PepPOL conjugate was dosed by IV administration to BL/6 mice at 0.82 or 8.2 mg/kg dose levels. […] The PK profiles for each peptide were evaluated by quantifying plasma concentrations of total intact peptide material over time (see methods).
For data set [10], the system named is CDH3-CD3-MSLN-CD3 TCE (SEQ ID NO 255). The data set can be described thus: SPR assay of immobilized peptides binding with TCE. The procedure:
as §1, §2

Data set [11] has as its system CLDN6xCD3 TCE SEQ ID NO 340. Kind of data set: SPR assay of immobilized peptides binding with TCE. To be noted: immobilized peptide, Kinetic 1:1 Binding. The method, then:
as §1, §2

The next data set concerns the target STEAP1xCD3 TCE. The data set can be described thus: SPR solution assay of competition binding with TCE. The method, then: as §3, §4, §5, §6, §7

Where no end group is shown, it is not given here. [ ]: non-standard residue; d: D form. pGlu = O=C1CC[C@@H](C(=O)O)N1

FLT3xCD3 TCE SEQ ID NO 93, sequence (as listed by the source): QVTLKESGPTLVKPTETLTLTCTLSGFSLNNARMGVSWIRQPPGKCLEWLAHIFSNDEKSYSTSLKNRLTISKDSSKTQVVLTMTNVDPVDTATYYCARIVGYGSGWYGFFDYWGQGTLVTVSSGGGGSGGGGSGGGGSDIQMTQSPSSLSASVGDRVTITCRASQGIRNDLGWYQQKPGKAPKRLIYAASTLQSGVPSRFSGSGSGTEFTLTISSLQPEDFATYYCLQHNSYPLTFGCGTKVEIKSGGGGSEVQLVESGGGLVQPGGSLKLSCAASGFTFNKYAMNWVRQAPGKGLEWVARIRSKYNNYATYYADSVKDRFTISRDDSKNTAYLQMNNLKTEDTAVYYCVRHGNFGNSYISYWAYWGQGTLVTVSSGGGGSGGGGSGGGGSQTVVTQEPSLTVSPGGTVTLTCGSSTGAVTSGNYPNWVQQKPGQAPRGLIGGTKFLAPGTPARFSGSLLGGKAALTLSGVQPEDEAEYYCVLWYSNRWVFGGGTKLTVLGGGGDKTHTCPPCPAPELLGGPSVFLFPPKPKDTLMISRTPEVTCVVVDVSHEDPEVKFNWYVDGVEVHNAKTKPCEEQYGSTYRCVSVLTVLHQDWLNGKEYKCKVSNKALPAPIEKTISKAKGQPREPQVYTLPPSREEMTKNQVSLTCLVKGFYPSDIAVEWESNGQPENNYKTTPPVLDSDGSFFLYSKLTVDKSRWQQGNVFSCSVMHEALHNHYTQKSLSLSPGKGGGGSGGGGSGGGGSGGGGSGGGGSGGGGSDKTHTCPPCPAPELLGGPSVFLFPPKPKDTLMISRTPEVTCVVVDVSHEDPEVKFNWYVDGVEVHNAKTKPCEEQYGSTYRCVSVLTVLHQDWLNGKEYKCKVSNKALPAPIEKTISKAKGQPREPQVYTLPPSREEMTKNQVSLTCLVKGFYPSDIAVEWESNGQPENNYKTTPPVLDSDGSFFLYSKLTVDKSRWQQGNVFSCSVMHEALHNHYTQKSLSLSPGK
DLL3xCD3 TCE SEQ ID NO 104, sequence (as listed by the source): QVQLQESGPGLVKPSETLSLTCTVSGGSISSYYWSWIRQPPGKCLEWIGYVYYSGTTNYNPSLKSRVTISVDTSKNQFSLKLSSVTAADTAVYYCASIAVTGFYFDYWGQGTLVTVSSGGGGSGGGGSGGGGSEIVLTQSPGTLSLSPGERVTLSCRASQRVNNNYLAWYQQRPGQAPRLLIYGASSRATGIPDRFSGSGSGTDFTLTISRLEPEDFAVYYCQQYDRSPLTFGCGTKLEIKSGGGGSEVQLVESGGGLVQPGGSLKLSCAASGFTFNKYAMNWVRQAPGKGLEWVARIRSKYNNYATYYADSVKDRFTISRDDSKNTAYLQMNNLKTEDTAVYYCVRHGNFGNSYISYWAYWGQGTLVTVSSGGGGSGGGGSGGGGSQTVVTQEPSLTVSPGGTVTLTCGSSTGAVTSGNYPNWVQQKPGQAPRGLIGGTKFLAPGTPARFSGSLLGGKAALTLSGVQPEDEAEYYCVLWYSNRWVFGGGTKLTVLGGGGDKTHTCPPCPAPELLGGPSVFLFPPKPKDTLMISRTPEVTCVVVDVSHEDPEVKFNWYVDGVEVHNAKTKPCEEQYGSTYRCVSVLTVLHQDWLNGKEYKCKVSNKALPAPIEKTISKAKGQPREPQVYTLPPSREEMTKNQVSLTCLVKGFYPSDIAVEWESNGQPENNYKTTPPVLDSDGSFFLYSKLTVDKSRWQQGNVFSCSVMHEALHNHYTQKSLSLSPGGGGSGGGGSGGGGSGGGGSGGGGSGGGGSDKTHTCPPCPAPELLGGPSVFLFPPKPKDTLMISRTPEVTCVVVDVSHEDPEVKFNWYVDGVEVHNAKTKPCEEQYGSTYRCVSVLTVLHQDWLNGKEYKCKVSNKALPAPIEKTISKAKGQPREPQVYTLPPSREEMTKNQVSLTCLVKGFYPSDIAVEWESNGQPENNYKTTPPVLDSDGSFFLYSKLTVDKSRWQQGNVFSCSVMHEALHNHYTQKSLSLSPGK
CDH3-CD3-MSLN-CD3 TCE (SEQ ID NO 255), sequence (as listed by the source): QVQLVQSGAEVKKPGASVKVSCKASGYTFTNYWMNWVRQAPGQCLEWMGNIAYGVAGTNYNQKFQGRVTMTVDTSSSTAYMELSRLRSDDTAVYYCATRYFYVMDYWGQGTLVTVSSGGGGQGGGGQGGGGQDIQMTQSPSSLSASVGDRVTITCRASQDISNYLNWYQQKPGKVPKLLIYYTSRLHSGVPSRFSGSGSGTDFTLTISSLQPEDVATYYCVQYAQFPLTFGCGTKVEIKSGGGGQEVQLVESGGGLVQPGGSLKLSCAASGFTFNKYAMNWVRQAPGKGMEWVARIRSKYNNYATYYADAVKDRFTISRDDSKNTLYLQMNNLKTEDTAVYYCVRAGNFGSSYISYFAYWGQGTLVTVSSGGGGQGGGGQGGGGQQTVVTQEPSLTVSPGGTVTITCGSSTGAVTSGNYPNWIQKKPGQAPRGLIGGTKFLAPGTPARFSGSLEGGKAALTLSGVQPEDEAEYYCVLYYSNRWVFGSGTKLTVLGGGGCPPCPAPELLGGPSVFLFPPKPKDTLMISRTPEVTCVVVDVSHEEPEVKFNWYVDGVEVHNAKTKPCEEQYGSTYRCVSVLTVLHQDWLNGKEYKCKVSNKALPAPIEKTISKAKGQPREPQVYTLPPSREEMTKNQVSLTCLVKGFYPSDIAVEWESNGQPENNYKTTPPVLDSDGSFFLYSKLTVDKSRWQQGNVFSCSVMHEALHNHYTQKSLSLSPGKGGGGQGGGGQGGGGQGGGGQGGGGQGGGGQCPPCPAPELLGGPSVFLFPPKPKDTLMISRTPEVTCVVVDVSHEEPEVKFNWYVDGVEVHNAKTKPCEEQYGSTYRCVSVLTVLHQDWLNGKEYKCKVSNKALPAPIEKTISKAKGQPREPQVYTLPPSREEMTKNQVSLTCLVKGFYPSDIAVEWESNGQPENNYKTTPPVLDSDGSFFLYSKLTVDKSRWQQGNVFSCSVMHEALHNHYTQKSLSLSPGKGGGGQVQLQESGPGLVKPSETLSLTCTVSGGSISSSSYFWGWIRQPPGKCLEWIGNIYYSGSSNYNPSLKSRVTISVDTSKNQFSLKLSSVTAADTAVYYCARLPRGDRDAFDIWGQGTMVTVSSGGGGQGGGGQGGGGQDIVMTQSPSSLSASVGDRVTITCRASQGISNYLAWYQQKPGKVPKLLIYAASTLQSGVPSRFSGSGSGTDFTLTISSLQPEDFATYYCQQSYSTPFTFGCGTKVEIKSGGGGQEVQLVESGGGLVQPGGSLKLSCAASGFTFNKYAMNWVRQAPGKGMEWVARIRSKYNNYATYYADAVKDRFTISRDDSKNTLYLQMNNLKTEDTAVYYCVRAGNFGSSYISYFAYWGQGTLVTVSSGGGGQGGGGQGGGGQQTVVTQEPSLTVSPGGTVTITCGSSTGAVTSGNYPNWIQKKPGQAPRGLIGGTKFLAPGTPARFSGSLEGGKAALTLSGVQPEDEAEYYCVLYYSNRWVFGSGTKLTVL
Steap 1xCD3 TCE SEQ ID NO 373 + 374 + 375, sequence (as listed by the source): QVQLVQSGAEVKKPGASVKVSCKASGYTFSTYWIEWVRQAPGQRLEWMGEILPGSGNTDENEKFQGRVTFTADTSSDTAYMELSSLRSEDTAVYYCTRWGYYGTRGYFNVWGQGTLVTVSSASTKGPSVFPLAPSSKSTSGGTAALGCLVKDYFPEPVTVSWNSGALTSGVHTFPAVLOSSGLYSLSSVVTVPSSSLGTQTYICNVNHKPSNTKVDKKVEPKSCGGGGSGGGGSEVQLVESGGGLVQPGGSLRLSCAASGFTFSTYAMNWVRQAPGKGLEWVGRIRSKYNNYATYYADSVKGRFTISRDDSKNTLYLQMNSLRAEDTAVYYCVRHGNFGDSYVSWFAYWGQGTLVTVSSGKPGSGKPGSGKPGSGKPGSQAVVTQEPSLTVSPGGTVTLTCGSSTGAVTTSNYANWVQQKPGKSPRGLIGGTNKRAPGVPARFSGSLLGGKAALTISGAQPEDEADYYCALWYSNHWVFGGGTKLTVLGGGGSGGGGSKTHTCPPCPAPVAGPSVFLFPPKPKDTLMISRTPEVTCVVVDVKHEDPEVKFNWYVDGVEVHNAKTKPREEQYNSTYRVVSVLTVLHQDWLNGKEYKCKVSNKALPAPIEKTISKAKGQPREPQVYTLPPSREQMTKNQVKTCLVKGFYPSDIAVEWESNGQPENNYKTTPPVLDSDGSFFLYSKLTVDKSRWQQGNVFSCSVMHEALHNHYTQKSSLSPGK
Steap 1xCD3 TCE SEQ ID NO 373 + 374 + 375, sequence (as listed by the source partner): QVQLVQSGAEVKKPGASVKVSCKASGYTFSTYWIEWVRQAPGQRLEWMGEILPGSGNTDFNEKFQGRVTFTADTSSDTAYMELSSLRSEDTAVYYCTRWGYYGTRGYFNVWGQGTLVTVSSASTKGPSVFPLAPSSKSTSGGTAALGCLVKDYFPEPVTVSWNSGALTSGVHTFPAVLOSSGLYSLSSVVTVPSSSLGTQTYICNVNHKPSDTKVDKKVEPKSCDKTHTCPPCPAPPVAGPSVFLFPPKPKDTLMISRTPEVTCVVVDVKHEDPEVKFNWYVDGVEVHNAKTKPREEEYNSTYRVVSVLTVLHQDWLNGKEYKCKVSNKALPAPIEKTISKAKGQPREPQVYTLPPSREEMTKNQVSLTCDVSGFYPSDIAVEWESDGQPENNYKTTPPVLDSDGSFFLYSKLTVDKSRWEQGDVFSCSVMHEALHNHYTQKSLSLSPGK
Steap 1xCD3 TCE SEQ ID NO 373 + 374 + 375, sequence (as listed by the source partner): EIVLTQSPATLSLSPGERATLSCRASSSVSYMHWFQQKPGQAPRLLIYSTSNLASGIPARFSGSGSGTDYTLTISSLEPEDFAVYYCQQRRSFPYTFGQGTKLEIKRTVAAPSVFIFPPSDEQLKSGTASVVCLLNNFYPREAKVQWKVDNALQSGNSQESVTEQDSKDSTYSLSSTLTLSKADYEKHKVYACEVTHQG

Take “pE-DGNEELKGC (PEG)-NH2 [79675-1] ([pGlu]DGNEELKGC-NH2; also: PEG attached, size and site not given here in name)”: in [1], the “inhibition activity against TCE cytotoxicity (FIG. 15)” value is recorded as “highest inhibition activity”. Also, the Affinity entry in data set [2] (masking molecules of Example 12) is “High (an affinity indicated as Kd of about 0.05 to about 10 nM, typically 0.1 pM to 10 nM or 500 pM to 5 nM is considered of “high” affinity)”; in data set [2] (masking molecules tested with respect to TCE of SEQ ID NO 255 (Table 20)), “High (an affinity indicated as Kd of about 0.05 to about 10 nM, typically 0.1 pM to 10 nM or 500 pM to 5 nM is considered of “high” affinity)”.
In turn, “(pE-DGNEEMGKGMEENGDQC)4-PEG(20 kDa) ([pGlu]DGNEEMGKGMEENGDQC; also: four copies attached to PEG(20 kDa), site not given here)” showed an elimination half-lives in data set [3] of around 102 min. Moreover, the “koff” value in data set [4] amounted to 0.00195 s⁻¹. Besides, the IL-6 serum concentration result with CD20 TCE (0.010 mg/kg CD20 TCE + 0.016 mg/kg (25×)) is “moderate increase in IL-6 serum concentration for n=1 of 2 animals”. The IL-6 stimulation entry with CD20 TCE (0.010 mg/kg CD20 TCE + 0.16 mg/kg (250×)) is given as “No IL-6 stimulation was observed”. Further, the “difference in CD20 TCE cytolytic activity vs CD20 TCE control group” value with CD20 TCE (0.010 mg/kg CD20 TCE IV) is “No apparent difference”. In addition, the “circulating CD20+ B lymphocytes” value with CD20 TCE (0.010 mg/kg CD20 TCE IV alone or in combination) was “complete elimination”. The “reduction in peak serum MCP-1” value with CD20 TCE (4 hr, 250× combo group, 0.010 mg/kg CD20 TCE IV) was ~ 98%. Moreover, the “TNF-α and IFN-γ” value in the data set on CD20 TCE (CD20 TCE + 0.160 mg/kg, all time points, both animals) is “not detected above the assay LLOQ”. The IL-2 response result in the data set with CD20 TCE (any group) is given as “No detectable IL-2 response”. The “T cell activation, early (CD69+) and late (CD25+) markers by flow cytometry” value in the data set with CD20 TCE (co-administration with 0.010 mg/kg CD20 TCE, 20 day study) was “pronounced effect on T cell activation”. The “C-reactive protein (CRP)” value in the data set with CD20 TCE (combo groups relative to CD20 TCE monotherapy 0.010 mg/kg IV) is “dose-dependent decrease in CRP”.
Turning to pGlu-DGTEELKGC ([pGlu]DGTEELKGC), the “ka” value in [5] was found to be 4.81e+06 M⁻¹ s⁻¹; in data set [6], 2.09e+06 M⁻¹ s⁻¹; in data set [7], 3.21e+06 M⁻¹ s⁻¹. The “kd” value was 0.0713 s⁻¹ in data set [5], 0.0734 s⁻¹ in data set [6] and 0.0285 s⁻¹ in data set [7]. In the data set with FLT3xCD3 TCE (FLT3×CD3 TCE and STEAP1×CD3 TCE), the “reduction in IC50 (FIG. 19)” value is “negative example”.
Take “(QDGNEEMGKGMEENGDQC)4 - PEG(20 kDa) (also: four copies conjugated to PEG 20 kDa)”: the terminal elimination half-lives in [8] is recorded as around 90 min. The “koff” value in data set [4] amounted to 0.0047 s⁻¹. For the same substance, in the data set on muCD19 TCE, the “PD effect with respect to CD19+ B cell depletion” value is listed as “retained a greater degree of PD effect” and the “impact on cytokine reduction” value is recorded as “cytokine reduction can be seen”. Moreover, in data set [9], the terminal elimination half-life is around 88 min.
In the case of “pGlu-DGEEELKGC (N-terminal pyroglutamate; VARIANT 1 Pyroglutamic acid)”, the Kd was 20.5 nM in [5]; 27.4 nM in data set [6]; 72.5 nM in data set [10] (immobilized peptide, SS Affinity model); 7.3 nM in data set [7]. Besides, the “ka” value is 2.64e+06 M⁻¹ s⁻¹ in data set [5], 3.04e+06 M⁻¹ s⁻¹ in data set [6], 3.81e+06 M⁻¹ s⁻¹ in data set [11] and 4.04e+06 M⁻¹ s⁻¹ in [7]. In addition, the “kd” value stood at 0.0542 s⁻¹ in data set [5], 0.0834 s⁻¹ in [6], 0.0624 s⁻¹ in data set [11] and 0.0295 s⁻¹ in [7]. For the same substance, in [10] (bivalent analyte model), the “fast component for the off-rate” value stood at 0.236 s⁻¹. Besides, the “fast component of the on-rate” value in [10] (bivalent analyte model) amounted to 1.29e+06 M⁻¹ s⁻¹. Further, the IC50 on STEAP1xCD3 TCE is 28.6 nM; at FLT3xCD3 TCE (solution competition), 14.7 nM.

Usually koff stands for a measure of how fast the partners let go of each other. Read a high koff as fast dissociation. One may read the Kd as the free concentration of one partner at which half of the binding sites on the other are occupied at equilibrium, for simple one-to-one binding. In general, IC50 refers to the concentration needed to halve the response being measured.
